Measured values taken from patent publication US20200239530A1, “COMPOUNDS AND METHODS OF MODULATING PROTEIN DEGRADATION” (Vividion Therapeutics, Inc., priority 2017, published 2020).

Columns and labels:
Test in all cases: Cysteine liganding, probe competition
Format in all cases: binding
[1] = molecular target: T1, ANAPC7 Anaphase-promoting complex subunit 7 (Homo sapiens, UniProt Q9UJX3)
T1 construct: Cells were resuspended in cold PBS on ice and sonicated with a probe sonicator to achieve lysis; endogenous in cells
Summary of the method: (§1)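 Lysates from probe-sonicated cells in PBS (5 mg/ml proteome) were exposed to compound for 1 hr at 25° C, then labelled with desthiobiotin iodoacetamide probe (10 mM stock) for 1 hr at 25° C. Probe-tagged peptides were streptavidin-enriched after trypsin digestion.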

[2] = molecular target: T2, BIRC3 Baculoviral IAP repeat-containing protein 3 (Homo sapiens, UniProt Q13489)
T2 construct: Cells were resuspended in cold PBS on ice and sonicated with a probe sonicator to achieve lysis; endogenous in cells
Summary of the method: as §1

[3] = molecular target: T3, FBXO30 F-box only protein 30 (Homo sapiens, UniProt Q8TB52)
T3 construct: Cells were resuspended in cold PBS on ice and sonicated with a probe sonicator to achieve lysis; endogenous in cells
T3 sequence (Q8TB52 1-745): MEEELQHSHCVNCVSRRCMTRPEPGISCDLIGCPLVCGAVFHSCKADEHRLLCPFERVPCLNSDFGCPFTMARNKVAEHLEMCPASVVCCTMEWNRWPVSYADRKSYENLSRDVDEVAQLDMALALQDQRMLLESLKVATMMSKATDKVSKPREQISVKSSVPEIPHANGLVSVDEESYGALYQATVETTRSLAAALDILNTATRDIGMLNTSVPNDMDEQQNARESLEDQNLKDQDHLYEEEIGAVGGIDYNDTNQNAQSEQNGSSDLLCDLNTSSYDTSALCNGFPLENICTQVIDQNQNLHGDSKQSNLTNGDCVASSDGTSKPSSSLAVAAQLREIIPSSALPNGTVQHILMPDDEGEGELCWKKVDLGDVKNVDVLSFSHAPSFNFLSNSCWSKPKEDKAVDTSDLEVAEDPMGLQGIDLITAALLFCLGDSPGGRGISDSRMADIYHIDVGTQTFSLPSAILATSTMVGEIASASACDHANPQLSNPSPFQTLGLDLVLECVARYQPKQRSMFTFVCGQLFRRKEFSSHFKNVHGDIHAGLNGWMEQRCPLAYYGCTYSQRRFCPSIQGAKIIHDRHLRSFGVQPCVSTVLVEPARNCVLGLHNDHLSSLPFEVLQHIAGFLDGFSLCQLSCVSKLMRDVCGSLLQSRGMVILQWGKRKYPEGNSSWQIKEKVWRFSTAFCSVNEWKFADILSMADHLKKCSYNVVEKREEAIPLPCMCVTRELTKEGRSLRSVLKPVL
Summary of the method: as §1

[4] = molecular target: T4, HIST1H3J Histone H3.1 (Homo sapiens, UniProt P68431); conditions: for Liganded: HIST1H3J Res# 111, uniprot P68431
T4 construct: Cells were resuspended in cold PBS on ice and sonicated with a probe sonicator to achieve lysis; endogenous in cells
Summary of the method: as §1

[5] = molecular target: T5, TAPBP Tapasin (Homo sapiens, UniProt O15533)
T5 construct: Cells were resuspended in cold PBS on ice and sonicated with a probe sonicator to achieve lysis; endogenous in cells
T5 sequence (O15533 21-448): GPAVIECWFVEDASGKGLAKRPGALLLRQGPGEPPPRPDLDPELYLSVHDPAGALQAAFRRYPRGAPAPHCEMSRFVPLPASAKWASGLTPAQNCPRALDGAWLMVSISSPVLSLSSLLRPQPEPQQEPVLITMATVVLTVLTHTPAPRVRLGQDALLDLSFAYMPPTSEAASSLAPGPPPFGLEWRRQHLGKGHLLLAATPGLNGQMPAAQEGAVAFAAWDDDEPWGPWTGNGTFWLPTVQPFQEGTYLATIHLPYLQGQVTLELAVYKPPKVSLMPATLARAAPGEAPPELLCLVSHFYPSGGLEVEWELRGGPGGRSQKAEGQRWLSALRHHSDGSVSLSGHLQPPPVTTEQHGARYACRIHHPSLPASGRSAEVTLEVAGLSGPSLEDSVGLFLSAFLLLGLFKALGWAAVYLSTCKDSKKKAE
Summary of the method: as §1

T1 sequence (Q9UJX3 whole entry, one chain of several): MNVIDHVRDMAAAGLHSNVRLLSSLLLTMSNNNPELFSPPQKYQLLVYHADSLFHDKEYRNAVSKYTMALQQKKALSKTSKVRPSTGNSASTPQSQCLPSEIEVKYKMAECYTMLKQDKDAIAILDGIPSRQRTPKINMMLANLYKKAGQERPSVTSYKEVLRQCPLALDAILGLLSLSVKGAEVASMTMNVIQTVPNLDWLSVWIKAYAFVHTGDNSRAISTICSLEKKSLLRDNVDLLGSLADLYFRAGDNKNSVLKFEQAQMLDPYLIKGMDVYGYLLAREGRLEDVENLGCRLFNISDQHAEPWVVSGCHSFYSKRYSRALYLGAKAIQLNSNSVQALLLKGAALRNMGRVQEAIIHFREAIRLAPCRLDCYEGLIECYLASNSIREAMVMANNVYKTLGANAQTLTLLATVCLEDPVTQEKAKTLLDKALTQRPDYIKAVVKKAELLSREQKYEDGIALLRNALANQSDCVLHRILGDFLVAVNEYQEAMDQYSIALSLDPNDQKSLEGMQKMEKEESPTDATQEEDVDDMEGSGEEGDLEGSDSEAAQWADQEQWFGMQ
T2 sequence (Q13489 whole entry): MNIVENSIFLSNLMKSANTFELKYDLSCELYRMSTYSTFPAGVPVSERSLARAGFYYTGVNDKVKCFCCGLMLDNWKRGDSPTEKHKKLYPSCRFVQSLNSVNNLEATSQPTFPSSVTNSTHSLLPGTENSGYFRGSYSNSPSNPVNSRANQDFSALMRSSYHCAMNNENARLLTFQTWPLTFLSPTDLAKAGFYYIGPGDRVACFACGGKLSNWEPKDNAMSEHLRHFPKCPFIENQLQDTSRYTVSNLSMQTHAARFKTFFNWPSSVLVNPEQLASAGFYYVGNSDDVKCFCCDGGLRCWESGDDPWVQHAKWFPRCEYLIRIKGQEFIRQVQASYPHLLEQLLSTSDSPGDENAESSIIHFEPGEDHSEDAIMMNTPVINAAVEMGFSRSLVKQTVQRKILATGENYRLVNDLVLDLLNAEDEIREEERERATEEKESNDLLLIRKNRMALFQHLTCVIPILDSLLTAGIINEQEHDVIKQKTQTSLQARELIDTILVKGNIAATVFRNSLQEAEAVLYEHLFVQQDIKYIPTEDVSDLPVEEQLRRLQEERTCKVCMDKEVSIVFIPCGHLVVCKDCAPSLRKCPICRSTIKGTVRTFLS

COc1ccc2c(c1)CCCN2C(=O)CCl [KB02]
Liganded ([1]; ANAPC7 Res# 329, uniprot Q9UJX3): YES
Liganded ([2]; BIRC3 Res# 28, uniprot Q13489): YES
Liganded ([3]; FBXO30 Res# 725, uniprot Q8TB52): YES
Liganded [4]: YES
Liganded ([5]; TAPBP Res# 440, uniprot O15533): YES

O=C(CCl)Nc1cc(C(F)(F)F)cc(C(F)(F)F)c1 [KBO3]
100 Max ([1]; uniprot Q9UJX3): 60.9
100 ave ([1]; uniprot Q9UJX3): 47.5
500 Max ([1]; uniprot Q9UJX3): 73.4
500 ave ([1]; uniprot Q9UJX3): 68.4
100 Max ([2]; uniprot Q13489): 1.3
100 ave ([2]; uniprot Q13489): −2.6
500 Max ([2]; uniprot Q13489): 18.7
500 ave ([2]; uniprot Q13489): 18.7
100 Max ([3]; uniprot Q8TB52): 10.4
100 ave ([3]; uniprot Q8TB52): 4.3
500 ave ([3]; uniprot Q8TB52): 25.0
500 Max ([3]; uniprot Q8TB52, unit assumed): 39.5%
Liganded [4]: YES
100 ave ([4]; uniprot P68431): 22.28
500 Max ([4]; uniprot P68431): 79.39
500 ave ([4]; uniprot P68431): 79.39
100 Max ([4]; uniprot P68431, in % (unit assumed)): 50.87
100 Max ([5]; uniprot O15533): 31.4264
100 ave ([5]; uniprot O15533): 28.54
500 Max ([5]; uniprot O15533): 68.7451
500 ave ([5]; uniprot O15533): 68.7451
